Compound	melting point [°C]
CCc1cccc(CC)c1N(C=O)CC(=O)O	139 to 141
Cc1cc(C(=O)Nc2cnccc2C)c2c(C)nn(-c3ccccc3)c2n1	227 to 228
CCCc1ccc(C(=O)Nc2ccc3c(c2)nc(C)n3C)cc1	214 to 218
CCCCc1cccn2c(=O)c(-c3nnn[nH]3)cnc12	256 to 258
CC1(C)OC(=O)Nc2ccc(I)cc21	196 to 197
CN1CCc2nc3cc(Cl)ccc3c(Nc3ccccc3)c2C1	197 to 198
O[C@@H]1CN=C(c2cccc(Cl)c2)O[C@H]1c1ccccc1 (racemic)	100
OCC1(CO)CC(Cc2ccc(F)cc2)=NO1	93 to 97
CCN1C(=O)C(C(=O)Nc2cccc(C(=O)Nc3ccc(I)cc3)c2)c2cc(C(C)=O)ccc21 (configuration not stated)	205 to 210
CCOc1ccc(-c2nc3n(c2-c2ccc(OCC)cc2)CCC3)cc1	135 to 138
CCCn1nc(C(C)C)c(C(=O)O)c1Cc1ccc(-c2ccccc2NS(=O)(=O)C(F)(F)F)cc1	75 to 78
CCOC(=O)C=C(N)C(C)(C)OC(N)=O	109 to 111
O=CCCN1CCc2cc(Br)ccc2C1=O	93 to 94
CC(C)(C)c1cc2ncnn2nc1OCCN1CCC(OC(c2ccccc2)c2ccccc2)CC1	133 to 135
COC(=O)C=Cc1ccc(OCCN(C)c2ccccn2)cc1	93 to 95
O=C(c1coc(-c2ccc(CCl)cc2)n1)N1CCCC1	126 to 128
Cn1c(C(F)(F)F)cc(=O)n(-c2cc(OC(=O)Oc3ccccc3)c(Cl)cc2F)c1=O	112 to 115
C[C@@H]1Cc2c(N3CCN(C)CC3)c(F)cc3c(=O)c(C(=O)O)cn1c23	249 to 252
O=C(CCc1ccccc1)Nc1c(Cl)ccc2nc(N3CCNCC3)ccc12	231 to 234
O=C(Nc1ccc(F)c(F)c1)C12CC3CC(CC(C3)C1)C2	168 to 170
CC1(C)CCC(C)(C)c2cc(-c3nnc(-c4ccc(C(N)=O)cc4)o3)ccc21	272 to 274
CC(=O)Nc1ccc(N2CC(CNC(C)=S)OC2=O)cc1F (configuration not stated)	200 to 201
Cc1cnc2ccc3c(c2c1)OC(CN1CC=C(c2c[nH]c4ccccc24)CC1)CO3 (configuration not stated)	211 to 213
CCC1(C)OC(c2ccc(S(C)(=O)=O)cc2)=C(c2ccccc2)C1=O (configuration not stated)	115 to 117
CC(C)Cc1csc(NC(=O)OC(C)(C)C)c1C(=O)O	154 to 155
CCC1c2ccc(C#N)n2-c2ccc(F)cc2N1S(=O)(=O)c1ccc(OC)c(C)c1 (configuration not stated)	196 to 199

Compound	melting point [°C]
COc1cccc(-c2ccc3ccccc3c2Oc2ccc(C=O)cc2)c1	125 to 126
OCCOc1ccc2cccnc2c1	93 to 95
CCOC(=O)c1cc2cc(NC(C)=O)ccc2nn1	256 to 258
Cn1c(N)nc2cc(CN3CCN(C(c4ccccc4)c4ccccc4)CC3)ccc21	268
COc1cc(-c2ccc(C#N)cc2)cc(-c2nc3cc(C#N)ccc3[nH]2)c1O	334 to 335
CCCCCC1CCC(c2ccc(-c3cc(F)c(C(F)(F)Oc4cc(F)c(C(F)(F)F)c(F)c4)c(F)c3)c(F)c2)CC1 (configuration not stated)	74
O=C(NCCCCN1CCN(C(c2ccccc2)c2ccccc2)CC1)c1cnc2cccc(O)c2c1O	215 to 218
CN(C)C(=O)c1ccccc1Sc1ccc([N+](=O)[O-])cc1[N+](=O)[O-]	144 to 145
O=C(O)c1ccc2nc(/C=C/c3ccccc3)cc(=O)n2c1	293 to 295
CS(=O)c1cc(C(C)(C)C)c(O)c(C(C)(C)C)c1 (configuration not stated)	171 to 173
Cc1cc(I)ccc1-c1cccc(C(N)=O)c1	138 to 141
Cc1c(-c2ccccc2)sc2ncc(C(=O)C(C)C)c(O)c12	114 to 117
COc1ccc(N=Nc2ccc(O)c(C(=O)Nc3ccc4[nH]nnc4c3)c2)cc1	275 to 276
CC1(C)CC(=O)C2=C(C1)NC1=C(C(=O)CC(C)(C)C1)C2c1ccc(Cl)c(Cl)c1	> 300
O=C(c1ccc([N+](=O)[O-])cc1Cl)N1CCCCc2sccc21	131 to 134
COCCN1CCN(S(=O)(=O)c2ccc(-c3cnc4[nH]c(CCc5cc(OC)ccn5)nc4c3)cc2)CC1	206 to 208
CC(C)(C)OC(=O)N1CCn2c(-c3ccccc3)cc(C#N)c2C1	124 to 126
CCS(=O)(=O)Nc1c(C)cccc1C	90
CC(C)C[C@H](NC(=O)OC(C)(C)C)[C@@H]1CCC(=O)O1	75 to 77
O=C(O)[C@@H]1CSC2(CCSCC2)N1	196
COC1=CC(=O)C(OC)=C(CCCOCCC2=C(OC)C(=O)C=C(OC)C2=O)C1=O	129 to 130
COC(=O)c1ccccc1N=CNc1nnn[nH]1	199 to 200
C#CCOCCn1cnc2c(N)nc3ccccc3c21	225 to 227
Cc1c(C(=O)C2C(=O)CCCC2=O)ccc(S(C)(=O)=O)c1S(C)(=O)=O	301 to 302
CCC(CC)Oc1nc(C)nc(Nc2c(C)cc(C)cc2C)c1CO	121 to 123
Cc1ccc(C(=O)Nc2ccc(-n3nc(C(F)(F)F)cc3C(F)(F)F)cc2)s1	200 to 202

Compound	melting point [°C]
O=C(O)CCc1ccc2c(c1)C(=O)c1ccccc1CO2	128 to 130
CNC(=NCCSCc1nc[nH]c1C)S(=O)(=O)O	162 to 164
COc1ccc(-n2cccc2-c2ccc(S(C)(=O)=O)cc2)cc1F	116 to 118
CCn1nc(C)c2nc(C)nc(O)c21	220 to 223
CCCCCOc1ccc(Cn2c(C)nc(Cl)c2COC(=O)NS(=O)(=O)c2ccc(C)cc2)c(Cl)c1	109 to 111
Oc1ccc(Cc2ccccc2)c2c1NCCC2	135 to 136
O=C(O)C=Cc1cccc(-c2cccc([N+](=O)[O-])c2)c1	247 to 248
C[Si](C)(C)OCCOC(=O)c1ccccc1S(N)(=O)=O	72 to 76
CC=CC=CCOC(=O)C1=C(C)NC(C)=C(C(=O)OC(C)(C)C)C1c1cccc([N+](=O)[O-])c1 (configuration not stated)	152 to 154
CC1(CCl)C(C(=O)OCC(Cl)(Cl)Cl)N2C(=O)C(NC(=O)Cc3ccccc3)C2S1=O (configuration not stated)	130 to 131
CCCc1c(/C=C/c2ccccc2)nc2ccc(C(=O)O)cn2c1=O	250 to 252
CC(=O)c1ccc(C(=C2CC(C)(C)CC(C)(C)C2)c2ccc(O)cc2)cc1	195 to 196
COc1cc(Nc2ncc(-c3ccccc3)o2)ccc1-c1cnco1	212 to 215
CCCSc1ccccc1S(N)(=O)=O	58 to 64
Cc1c2c3c(nc(N)c2nn1C)CCCC3	258 to 259
N=C(N)Nc1nc2ccc(C(F)(F)F)cc2[nH]1	206 to 209
C=C1CCC(C2OC(=O)NC2=O)CC1 (configuration not stated)	63 to 64
COc1ccc(C2CCN(C(N)=O)CC2)cc1OC1CCCC1	149 to 150
Ic1ncnc2c1ncn2Cc1ccccc1	152 to 153
NC(=O)c1cccc(Oc2ccccc2)c1	127 to 128
COC(=O)c1cnn(-c2cccc(Cl)c2)c1C(N)=O	191 to 192
CCN(CC)Cc1nc(-c2ncn3c2CN(C)C(=O)c2ccccc2-3)no1	153 to 154
CCCC(Sc1nc2ccccc2[nH]1)C(=O)Nc1c(SC)cc(C)nc1SC (configuration not stated)	235 to 237
O=C(O)c1cn(C2CC2)c2c(F)c(N3CCC3)c(F)cc2c1=O	289 to 293
Cc1cccc(-c2nccc(Cl)n2)c1	74 to 75
CN(C)Cc1ccc(CSCCNC2=NS(=O)(=O)C(C(=O)N(C)C)=C2N)o1	101 to 104

Compound	melting point [°C]
CN(C)c1cc2ccccn2n1	51 to 52
CC(C)(C)OC(=O)NC(Cc1cc(C(=O)c2cc(C(F)(F)F)cc(C(F)(F)F)c2)ccc1N)C(=O)OC(C)(C)C (configuration not stated)	134 to 135
CCCCCCCCNC(=O)N1CCC(Oc2ccc(CCNC[C@H](O)COc3ccc(O)cc3)cc2)CC1	79 to 81
O=C(OC(c1ccccc1)c1ccccc1)c1c(-c2ccccc2)oc2c(CCl)cccc2c1=O	186
CCCCCCCCCCCCNc1nccc(NCCCO)n1	58 to 59
O=C(CCCN1CCN2c3ccccc3NC(=O)C2C1)c1ccc(F)cc1 (configuration not stated)	145 to 150
Cc1cccc(-c2nn3c(c2-c2ccc(F)cc2)CC[C@H]3CO)n1	142 to 144
COc1ccc(-c2ncnc(C(F)(F)F)c2Cl)cc1	104 to 106
Cc1nnc(-c2ccc3occ(-c4ccc(S(=O)(=O)CF)cc4)c3c2)o1	191 to 192
O=C1C(c2ccccc2)=C(c2ccccc2)C(=O)N1Cc1ccccc1	123 to 124
O=[N+]([O-])c1ccc(Cl)c(C(=S)Nc2ccc(Oc3ncc(C(F)(F)F)cc3Cl)cc2)c1	186 to 187
COc1ccc(COc2ccc(OC)c(Cc3cnc(N)nc3N)c2)cc1	220 to 221
Nc1ccc(S(=O)(=O)c2cc(C3CC3)nc(N3CCCC3)c2)cc1	216 to 218
CCOC=C(C=O)c1ccc(Br)cc1	152 to 156
COc1cc(C(=O)NNC(=O)c2occ(-c3ccccc3)c2-c2ccccc2)ccc1O	216 to 220
CC(C)(C)OC(=O)N1CCN(Cc2ccc([N+](=O)[O-])cc2)CC1	99 to 100
COC(=O)c1cc(C)cc(OC)c1C1=C(OC)C(=O)c2c(O)cccc2C1=O	165 to 167
C/C(=N\OCCCOc1ccc(C(=O)O)c(NC(=O)c2ccc(C(F)(F)F)cc2)c1)c1ccccc1	174 to 176
Cn1cc(CC#N)c2cc([N+](=O)[O-])ccc21	165 to 166
CCOC(=O)C1(Nc2ccc(C(O)(C(F)(F)F)C(F)(F)F)cc2)CCC(C(C)(C)C)CC1 (configuration not stated)	107
CC1Cc2c(c(S(N)(=O)=O)nn2C)C(=O)O1 (configuration not stated)	142 to 144
CC(=O)COc1cccc2ccc(OC(C)=O)nc12	79 to 80
Cc1ccccc1C=C1CCn2c1nc1ccc(C#N)cc1c2=O	234 to 236
CN(C)C(=S)Oc1ccc(C(F)(F)F)cc1C(=O)c1ccc(C#N)cc1	142
